This is an account of results in ChEMBL document CHEMBL5518186, “Discovery of the cereblon-recruiting tubulin PROTACs effective in overcoming Taxol resistance in vitro and in vivo” (Eur J Med Chem, 2024).

In data set [1] the test system is A549/TR. As to the kind of experiment: Induction of cell cycle arrest in human A549/Taxol cells assessed as accumulation of cells at G0/G1 phase at 0.1 uM incubated for 24 hrs by PI staining based flow cytometry analysis (reference value: 77.86%). It counts as functional. (A flow cytometer gives signals particle by particle.)
The test system of data set [2] is A549/TR. Nature of the data set: Induction of apoptosis in human A549/Taxol cells at 0.1 uM incubated for 48 hrs by Annexin V-FITC/PI staining based flow cytometry analysis. It counts as functional.
Data set [3] has as its system A549/TR. As to the kind of experiment: Induction of cell cycle arrest in human A549/Taxol cells assessed as accumulation of cells at S phase at 0.1 uM incubated for 24 hrs by PI staining based flow cytometry analysis (reference value: 2.85%). It counts as functional.
For data set [4], the system named is A549. Nature of the data set: Antiproliferative activity against human A549 cells incubated for 72 hrs. It counts as functional, cell-based. As to conditions: A549, 72 h.
In data set [5] the test system is A549/TR. As to the kind of experiment: Induction of cell cycle arrest in human A549/Taxol cells assessed as accumulation of cells at G2/M phase at 0.1 uM incubated for 24 hrs by PI staining based flow cytometry analysis (reference value: 17.02%). It counts as functional.
Data set [6] has as its target T1, Estrogen receptor (Homo sapiens) (UniProt P03372).
T1 sequence (whole entry): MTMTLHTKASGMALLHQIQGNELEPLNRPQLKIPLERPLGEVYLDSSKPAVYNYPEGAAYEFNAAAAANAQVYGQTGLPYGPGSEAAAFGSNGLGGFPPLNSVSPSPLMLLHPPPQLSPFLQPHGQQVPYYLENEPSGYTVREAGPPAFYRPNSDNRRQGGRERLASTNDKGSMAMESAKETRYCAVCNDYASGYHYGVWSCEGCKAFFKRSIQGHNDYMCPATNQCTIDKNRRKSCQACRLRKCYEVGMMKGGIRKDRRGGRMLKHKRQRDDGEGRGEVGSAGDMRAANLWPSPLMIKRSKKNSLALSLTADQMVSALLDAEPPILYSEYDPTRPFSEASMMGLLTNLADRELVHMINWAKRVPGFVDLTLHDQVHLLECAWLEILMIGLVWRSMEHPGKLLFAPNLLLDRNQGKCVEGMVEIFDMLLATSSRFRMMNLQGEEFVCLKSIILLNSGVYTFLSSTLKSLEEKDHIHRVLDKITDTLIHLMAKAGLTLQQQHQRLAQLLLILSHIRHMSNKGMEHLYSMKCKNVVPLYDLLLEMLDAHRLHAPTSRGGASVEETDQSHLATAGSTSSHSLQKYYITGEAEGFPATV
Nature of the data set: Induction of ER degradation (unknown origin).

For data set [7], the system named is A549/TR. As to the kind of experiment: Induction of apoptosis in human A549/Taxol cells at 1 uM incubated for 48 hrs by Annexin V-FITC/PI staining based flow cytometry analysis. It counts as functional.
Data set [8] in a line: Toxicity in nude mouse xenografted with human A549/Taxol cells assessed as body weight loss at 10 mg/kg, ip administered once every 2 days for 23 days and measured every 3 days. Conditions: in vivo, 552 h, time 23 day. It counts as organism-based, A549/TR. A general note: In xenograft studies the graft and the host belong to different species.
Data set [9] deals with A549/TR. As to the kind of experiment: Antitumor activity against human A549/Taxol cells xenografted in nude mouse assessed as tumor growth inhibition at 10 mg/kg, ip administered once every 2 days for 23 days by Vernier caliper method. It counts as functional. As to conditions: 552 h, time 23 day, read-out: TGI.
Data set [10] concerns A549. Nature of the data set: Antitumor activity against human A549 cells xenografted in nude mouse assessed as tumor growth inhibition at 10 mg/kg, ip administered once every 2 days for 23 days by Vernier caliper method. It counts as functional. As to conditions: A549, 552 h, time 23 day, read-out: TGI.
Data set [11] can be described thus: Toxicity in nude mouse xenografted with human A549 cells assessed as body weight loss at 10 mg/kg, ip administered once every 2 days for 23 days and measured every 3 days. It counts as organism-based. Conditions: in vivo, 552 h, time 23 day.
For data set [12], the system named is A549/TR. As to the kind of experiment: Induction of cell cycle arrest in human A549/Taxol cells assessed as accumulation of cells at S phase at 1 uM incubated for 24 hrs by PI staining based flow cytometry analysis (reference value: 2.85%). It counts as functional.
The test system of data set [13] is A549. As to the kind of experiment: Antitumor activity against human A549 cells xenografted in nude mouse assessed as decrease in tumor weight at 10 mg/kg, ip administered once every 2 days for 23 days by Vernier caliper method. It counts as functional, organism-based. Conditions: time 23.0 day.
For data set [14], the system named is A549. Nature of the data set: Induction of cell cycle arrest in human A549 cells assessed as accumulation of cells at G0/G1 phase at 0.02 uM incubated for 24 hrs by PI staining based flow cytometry analysis (reference value: 66.75%). It counts as functional.
The subject of data set [15] is A549/TR. As to the kind of experiment: Induction of cell cycle arrest in human A549/Taxol cells assessed as accumulation of cells at G0/G1 phase at 1 uM incubated for 24 hrs by PI staining based flow cytometry analysis (reference value: 77.86%). It counts as functional.
In data set [16] the test system is A549/TR. Nature of the data set: Induction of cell cycle arrest in human A549/Taxol cells assessed as accumulation of cells at G2/M phase at 1 uM incubated for 24 hrs by PI staining based flow cytometry analysis (reference value: 17.02%). It counts as functional.
Data set [17] concerns A549. Nature of the data set: Induction of cell cycle arrest in human A549 cells assessed as accumulation of cells at S phase at 0.02 uM incubated for 24 hrs by PI staining based flow cytometry analysis (reference value: 2.85%). It counts as functional.
For data set [18], the system named is A549. As to the kind of experiment: Antitumor activity against human A549 cells xenografted in nude mouse assessed as decrease in tumor volume at 10 mg/kg, ip administered once every 2 days for 23 days by Vernier caliper method. It counts as functional, organism-based. Conditions: time 23.0 day.
In data set [19] the test system is A549/TR. Nature of the data set: Inhibition of cell growth in human A549/Taxol cells incubated for 72 hrs by SRB method. It counts as functional, cell-based. On the technique in general: The SRB assay estimates cell density from bound dye.
For data set [20], the system named is A549. As to the kind of experiment: Induction of cell cycle arrest in human A549 cells assessed as accumulation of cells at G2/M phase at 0.02 uM incubated for 24 hrs by PI staining based flow cytometry analysis (reference value: 31.86%). It counts as functional.
Data set [21] addresses T2, Protein cereblon/Tubulin beta-3 chain (Homo sapiens, UniProt Q13509+Q96SW2). Nature of the data set: Protac activity at CRBN/beta3-tubulin in human A549 cells assessed as reduction in beta3-tubulin level incubated for 48 hrs by immunoblotting analysis. It counts as cell-based.
Target sequence in this assay (Q13509 whole entry, looked up): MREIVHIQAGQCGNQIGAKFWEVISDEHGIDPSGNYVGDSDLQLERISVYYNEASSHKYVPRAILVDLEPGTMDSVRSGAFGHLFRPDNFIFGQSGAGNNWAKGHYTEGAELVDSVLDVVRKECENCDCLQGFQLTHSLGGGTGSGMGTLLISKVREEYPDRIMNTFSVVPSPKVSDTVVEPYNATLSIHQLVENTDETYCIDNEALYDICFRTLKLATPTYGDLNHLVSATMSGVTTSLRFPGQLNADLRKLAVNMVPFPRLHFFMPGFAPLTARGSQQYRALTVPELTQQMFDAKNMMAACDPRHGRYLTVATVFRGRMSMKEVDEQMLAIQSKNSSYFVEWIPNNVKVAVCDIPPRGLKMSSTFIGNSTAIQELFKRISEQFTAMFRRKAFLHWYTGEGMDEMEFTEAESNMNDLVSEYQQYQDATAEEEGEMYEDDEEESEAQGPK
Target sequence in this assay (Q96SW2 whole entry, looked up): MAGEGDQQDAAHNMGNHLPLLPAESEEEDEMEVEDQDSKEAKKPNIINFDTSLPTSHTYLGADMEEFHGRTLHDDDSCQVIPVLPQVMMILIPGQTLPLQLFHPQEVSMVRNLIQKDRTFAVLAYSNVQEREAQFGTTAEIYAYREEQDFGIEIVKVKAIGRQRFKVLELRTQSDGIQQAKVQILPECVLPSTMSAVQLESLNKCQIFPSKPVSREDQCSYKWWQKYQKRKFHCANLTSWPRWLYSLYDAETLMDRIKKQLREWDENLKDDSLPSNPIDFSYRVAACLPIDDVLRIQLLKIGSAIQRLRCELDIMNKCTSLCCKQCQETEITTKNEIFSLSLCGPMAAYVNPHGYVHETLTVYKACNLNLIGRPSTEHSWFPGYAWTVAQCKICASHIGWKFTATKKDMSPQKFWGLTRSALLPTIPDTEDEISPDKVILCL
Data set [22] has as its target T3, Protein cereblon-alpha tubulin (Homo sapiens) (UniProt P0DPH7+P68366+Q71U36+P68363+Q9BQE3+Q6PEY2+A6NHL2+Q9NY65+Q96SW2). Nature of the data set: (§1) Protac activity at CRBN/alpha-tubulin in human A549 cells assessed as reduction in alpha-tubulin level incubated for 48 hrs by immunoblotting analysis. It counts as cell-based.
The target in data set [23] is Protein cereblon-alpha tubulin. The data set is described as §1. It counts as cell-based.
Data set [24] has as its system HeLa. Nature of the data set: Antiproliferative activity against human HeLa cells incubated for 72 hrs. It counts as functional, cell-based.
The subject of data set [25] is HepG2. As to the kind of experiment: Antiproliferative activity against human HepG2 cells incubated for 72 hrs. It counts as functional, cell-based. Conditions: HepG2, 72 h.
Data set [26] has as its target Protein cereblon/Tubulin beta. As to the kind of experiment: (§2) Protac activity at CRBN/beta-tubulin in human A549 cells assessed as reduction in beta-tubulin level incubated for 48 hrs by immunoblotting analysis. It counts as cell-based.
Data set [27] addresses T4, Protein cereblon/Tubulin beta (Homo sapiens) (UniProt P68371+Q9H4B7+Q13509+P04350+Q3ZCM7+P07437+Q13885+Q9BVA1+Q9BUF5+Q96SW2+A6NNZ2). The description is as §2. It counts as cell-based.
Data set [28] has as its target T3, Protein cereblon-alpha tubulin (Homo sapiens). As to the kind of experiment: (§3) Protac activity at CRBN/alpha-tubulin in human A549/Taxol cells assessed as reduction in alpha-tubulin level incubated for 48 hrs by immunoblotting analysis. It counts as cell-based.
The target of data set [29] is Protein cereblon-alpha tubulin. Described as §3. It counts as cell-based.
The subject of data set [30] is MCF7. As to the kind of experiment: Antiproliferative activity against human MCF7 cells incubated for 72 hrs. It counts as functional, cell-based. Conditions: MCF7, 72 h.
The target of data set [31] is T3, Protein cereblon-alpha tubulin (Homo sapiens). As to the kind of experiment: Protac activity at CRBN/alpha-tubulin in human A549 cells assessed as reduction in alpha-tubulin level at 0.01 to 1 uM incubated for 48 hrs by immunoblotting analysis. As to conditions: dose 0.01-1 µM. It counts as cell-based.
Data set [32] addresses T4, Protein cereblon/Tubulin beta (Homo sapiens). Nature of the data set: Protac activity at CRBN/beta-tubulin in human A549 cells assessed as reduction in beta-tubulin level at 0.01 to 1 uM incubated for 48 hrs by immunoblotting analysis. It counts as cell-based. Conditions: dose 0.01-1 µM.
The target of data set [33] is T2, Protein cereblon/Tubulin beta-3 chain. As to the kind of experiment: Protac activity at CRBN/beta3-tubulin in human A549 cells assessed as reduction in beta3-tubulin level at 0.01 to 1 uM incubated for 48 hrs by immunoblotting analysis. Conditions: dose 0.01-1 µM. It counts as cell-based.
Target sequence in this assay (Q13509 whole entry, looked up): as the sequence (Q13509 whole entry, looked up) above
Target sequence in this assay (Q96SW2 whole entry, looked up): as the sequence (Q96SW2 whole entry, looked up) above
The subject of data set [34] is U-937. As to the kind of experiment: Antiproliferative activity against human U-937 cells incubated for 72 hrs. It counts as functional, cell-based. Conditions: U-937, 72 h.
Data set [35] relates to MGC-803. Nature of the data set: Antiproliferative activity against human MGC-803 cells incubated for 72 hrs. It counts as functional, cell-based. Conditions: MGC-803, 72 h.
Data set [36] concerns the target T2, Protein cereblon/Tubulin beta-3 chain. Nature of the data set: Protac activity at CRBN/beta3-tubulin in human A549/Taxol cells assessed as reduction in beta3-tubulin level incubated for 48 hrs by immunoblotting analysis. It counts as cell-based.
Data set [37] deals with Protein cereblon/Tubulin beta. As to the kind of experiment: (§4) Protac activity at CRBN/beta-tubulin in human A549/Taxol cells assessed as reduction in beta-tubulin level incubated for 48 hrs by immunoblotting analysis. It counts as cell-based.
In data set [38] the target is T4, Protein cereblon/Tubulin beta (Homo sapiens). The data set is described as §4. It counts as cell-based.

Each structure is given as a SMILES string. Calls of active or inactive are those of the source. The rule behind the calls is not given here.

In general, IC50 refers to the concentration that inhibits the measured activity by half. Read a high IC50 as lower potency. As to `COc1ccc(/C=C\c2cc(OC)c(OC)c(OC)c2)cc1O` [COMBRETASTATIN A4], the Activity is recorded as 21.17% in data set [1], 26.9% in data set [2], 17.89% in data set [3] and 64.76% in data set [5]. The half-inhibitory concentration (IC50) in data set [4] came to 5 nM.
`O=C1CC[C@H](N2Cc3cc(N4CCN(CC5CCN(c6ccc([C@@H]7c8ccc(O)cc8CC[C@@H]7c7ccccc7)cc6)CC5)CC4)ccc3C2=O)C(=O)N1`: in [6], the Activity is below 89%.
Turning to `CC(=O)O[C@H]1C(=O)[C@@]2(C)[C@H]([C@H](OC(=O)c3ccccc3)[C@]3(O)C[C@H](OC(=O)[C@H](O)[C@@H](NC(=O)c4ccccc4)c4ccccc4)C(C)=C1C3(C)C)[C@]1(OC(C)=O)CO[C@@H]1C[C@@H]2O` [PACLITAXEL], the Activity in [7] is on record as 22.7%; in [8], “Non-Toxic”; in data set [11], “Non-Toxic”; in [12], 5.77%; in data set [14], 10.8%; in [15], 20.43%. The Activity was 74.23% in data set [16], 6.1% in [17] and 83.1% in data set [20]. Further, the inhibition in vivo at 10 mg/kg in data set [9] came out at 52%; in data set [10], 28.5%. In addition, the result in [13] and in [18] was Active. In addition, half-maximal inhibition in [19] (IC50) was put at 1030 nM.
In the case of `COc1ccc(/C=C\c2cc(OC)c(OC)c(OC)c2)cc1OC(=O)CCCCNc1cccc2c1C(=O)N(C1CCC(=O)NC1=O)C2=O` (stereo not given), the Activity result in [21], in data set [22], in [27], in data set [28], in [36] and in [38] was “Dose-Dependent Effect” throughout. The DC50 in [23] worked out at 883 nM; in [26], 35 nM; in data set [29] it was 105 nM; in [36] it was 18 nM; in [37] it was 9 nM. Further, the IC50 in data set [24] turned out to be 23 nM; in data set [25], 6 nM; in data set [30] it was 17 nM; in data set [4], 12 nM; in data set [34], 22 nM; in [35], 8 nM. The result in [31], in data set [32] and in [33] was Active.
